# Measurements as given in US8101612B2, “Phthalazine compounds and methods of use” (Amgen Inc., priority 2006, dated 2012).
# Assays:
# [1] = AA5225_IC50_IP (Table 4, assay code not explained); details: internal assay code
# [2] = AA2734_IC50_IP (Table 4, assay code not explained); details: internal assay code
# [3] = system: production of TNF by monocytes activated with bacterial lipopolysaccharide (LPS); experiment: Lipopolysaccharide-activated monocyte TNF production assay (whole blood monocyte assay, LPS induced TNF release); assay type: cell-based; details: Homo sapiens
# Experimental: Lipopolysaccharide-Activated Monocyte TNF Production Assay
# Test compounds were evaluated in vitro for the ability to inhibit the production of TNF by monocytes activated with bacterial lipopolysaccharide (LPS). Fresh residual source leukocytes (a byproduct of plateletpheresis) were obtained from a local blood bank, and peripheral blood mononuclear cells (PBMCs) were isolated by density gradient centrifugation on Ficol-Paque Plus (Pharmacia). PBMCs were suspended at 2×10^6/mL in DMEM supplemented to contain 2% FCS, 10 mM, 0.3 mg/mL […], 100 U/mL penicillin G and […] streptomycin sulfate (complete media). Cells were plated into Falcon flat bottom, 96 well culture plates (200 μL/well) and cultured overnight at 37° C. and 6% CO2. Non-adherent cells were removed by washing with 200 μl/well of fresh medium. Wells containing adherent cells (˜70% monocytes) were replenished with 100 μL of fresh medium.
# Preparation of Test Compound Stock Solutions
# Test compounds were dissolved in […]. Compound stock solutions were prepared to an initial concentration of […]. Stocks were diluted initially to 20-200 μM in complete media. Nine two-fold serial dilutions of each compound were then prepared in complete medium.
# Treatment of Cells with Test Compounds and Activation of TNF Production with Lipopolysaccharide
# One hundred microliters of each test compound dilution were added to microtiter wells containing adherent monocytes and 100 μL complete medium. Monocytes were cultured with test compounds for 60 min at which time 25 μL of complete medium containing 30 ng/mL lipopolysaccharide from E. coli K532 were added to each well. Cells were cultured an additional 4 hrs. Culture supernatants were then removed and TNF presence in the supernatants was quantified using an ELISA.
# Flat bottom, 96 well Corning High Binding ELISA plates were coated overnight (4° C.) with 150 μL/well of 3 μg/mL murine anti-human TNF-α MAb (R&D Systems #MAB210). Wells were then blocked for 1 h at room temperature with 200 μL/well of CaCl2-free ELISA buffer supplemented to contain 20 mg/mL BSA (standard ELISA buffer: […], 150 mM NaCl, 2 mM CaCl2, 0.15 mM thimerosal, pH 7.4). Plates were washed and replenished with 100 μL of test supernatants (diluted 1:3) or standards. Standards consisted of eleven 1.5-fold serial dilutions from a stock of 1 ng/mL recombinant human TNF (R&D Systems). Plates were incubated at room temperature for 1 h on orbital shaker (300 rpm), washed and replenished with 100 μL/well of 0.5 μg/mL goat anti-human TNF-α (R&D systems #AB-210-NA) biotinylated at a 4:1 ratio. Plates were incubated for 40 min, washed and replenished with 100 μL/well of alkaline phosphatase-conjugated streptavidin (Jackson ImmunoResearch #016-050-084) at 0.02 μg/mL. Plates were incubated 30 min, washed and replenished with 200 μL/well of 1 mg/mL of p-nitrophenyl phosphate. After 30 min, plates were read at 405 nm on a Vmax plate reader.
# [4] = system: THP1 cells (LPS-induced TNF-α secretion); experiment: Lipopolysaccharide-activated THP1 cell TNF production assay; assay type: cell-based; details: Homo sapiens, THP-1
# Experimental: Lipopolysaccharide-Activated THP1 Cell TNF Production Assay
# THP1 cells are resuspended in fresh THP1 media (RPMI 1640, 10% heat-inactivated FBS, 1XPGS, 1XNEAA, plus 30 μM βME) at a concentration of 1E6/mL. One hundred microliters of cells per well are plated in a polystyrene 96-well tissue culture. One microgram per mL of bacterial LPS is prepared in THP1 media and is transferred to the wells. Test compounds are dissolved in 100% DMSO and are serially diluted 3-fold in a polypropylene 96-well microtiter plate (drug plate). HI control and LO control wells contain only DMSO. One microliter of test compound from the drug plate followed by 10 μL of LPS are transferred to the cell plate. The treated cells are induced to synthesize and secrete TNF-α at 37° C. for 3 h. Forty microliters of conditioned media are transferred to a 96-well polypropylene plate containing 110 μL of ECL buffer (50 mM Tris-HCl pH 8.0, 100 mM NaCl, 0.05% Tween 20, 0.05% NaN3 and 1% FBS) supplemented with 0.44 nM MAB610 monoclonal Ab (R&D Systems), 0.34 nM ruthenylated AF210NA polyclonal Ab (R&D Systems) and 44 μg/mL sheep anti-mouse M280 Dynabeads (Dynal). After a 2 h incubation at room temperature with shaking, the reaction is read on the ECL M8 Instrument (IGEN Inc.). A low voltage is applied to the ruthenylated TNF-α immune complexes, which in the presence of TPA (the active component in Origlo), results in a cyclical redox reaction generating light at […]. The amount of secreted TNF-α in the presence of compound compared with that in the presence of DMSO vehicle alone (HI control) is calculated using the formula: % control (POC)=(cpd−average LO)/(average HI−average LO)*100. Data (consisting of POC and inhibitor concentration in μM) is fitted to a 4-parameter equation (y=A+((B−A)/(1+((x/C)^D))), where A is the minimum y (POC) value, B is the maximum y (POC), C is the x (cpd concentration) at the point of inflection and D is the slope factor) using a Levenburg-Marquardt non-linear regression algorithm.
Structure (SMILES),IC50 [1] [µM],IC50 [2] [µM],IC50 [3] [µM],IC50 [4] [µM]
"Cc1ccc(C(=O)NC2CC2)cc1-c1ccc2c([C@H](C)C(F)(F)F)nncc2c1 [Example 227b, N-cyclopropyl-4-methyl-3-(1-((1S)-2,2,2-trifluoro-1-methylethyl)-6-phthalazinyl)benzamide]",0.00161,0.00033,≤ 0.01,–
"Cc1ccc(C(=O)Nc2ccnn2C)cc1-c1ccc2c(OCC(F)(F)F)nncc2c1 [Example 2, 4-Methyl-N-(1-methyl-1H-pyrazol-5-yl)-3-(1-(2,2,2-trifluoroethoxy)phthalazin-6-yl)benzamide]",–,–,–,≤ 0.01
"Cc1ccc(C(=O)NC2CC2)cc1-c1ccc2c(-c3cc(F)c(S(C)(=O)=O)cc3C)nncc2c1 [Example 223, N-cyclopropyl-3-(1-(5-fluoro-2-methyl-4-(methylsulfonyl)phenyl)-6-phthalazinyl)-4-methylbenzamide]",0.000854,0.00122,≤ 0.01,–
"CC(C)Oc1nncc2cc(-c3cc(C(N)=O)ccc3Cl)ccc12 [Example 25, 4-chloro-3-(1-((1-methylethyl)oxy)-6-phthalazinyl)benzamide]",–,–,–,≤ 0.01
"CC(C)Nc1nncc2cc(-c3cc(C(=O)NC4CC4)ccc3Cl)ccc12 [Example 23, 4-chloro-N-cyclopropyl-3-(1-((1-methylethyl)amino)-6-phthalazinyl)benzamide]",–,–,–,≤ 0.01
"Cc1ccc(C(=O)NC(C)C)cc1-c1ccc2c(C(C)C)nncc2c1 [Example 39, 4-methyl-N-(1-methylethyl)-3-(1-(1-methylethyl)-6-phthalazinyl)benzamide]",–,–,≤ 0.01,–
"Cc1ccc(C(=O)Nc2ccn(C)n2)cc1-c1ccc2c(O[C@@H](C)C(F)(F)F)nncc2c1 [Example 72, 4-methyl-N-(1-methyl-1H-pyrazol-3-yl)-3-(1-(((1S)-2,2,2-trifluoro-1-methylethyl)oxy)-6-phthalazinyl)benzamide]",–,–,≤ 0.01,–
"Cc1ccc(C(=O)Nc2ccnn2C)cc1-c1ccc2c(-c3ccccc3C)nncc2c1 [Example 5, 4-methyl-N-(1-methyl-1H-pyrazol-5-yl)-3-(1-o-tolylphthalazin-6-yl)benzamide]",–,–,≤ 0.01,≤ 0.01
"Cc1ccc(N)cc1-c1ccc2c(O[C@H](C)C(F)(F)F)nncc2c1 [Example 238, 4-methyl-3-(1-(((1R)-2,2,2-trifluoro-1-methylethyl)oxy)-6-phthalazinyl)aniline]",–,–,≤ 0.25,–
"CCC(C)c1nncc2cc(-c3cc(C(N)=O)ccc3C)ccc12 (centres unmarked) [Example 51, 4-methyl-3-(1-(1-methylpropyl)-6-phthalazinyl)benzamide]",–,–,≤ 0.01,–
"Cc1ccc(C(N)=O)cc1-c1ccc2c(N3CCC[C@H]3C(C)(C)C)nncc2c1 [Example 35, 3-(1-((2S)-2-(1,1-dimethylethyl)-1-pyrrolidinyl)-6-phthalazinyl)-4-methylbenzamide]",–,–,≤ 0.01,–
"Cc1ccc(C(=O)NC2CC2)cc1-c1ccc2c(OC(CF)CF)nncc2c1 [Example 49, N-cyclopropyl-3-(1-((2-fluoro-1-(fluoromethyl)ethyl)oxy)-6-phthalazinyl)-4-methylbenzamide]",–,–,–,≤ 0.1
"CCn1nccc1NC(=O)c1ccc(C)c(-c2ccc3c(NC(C)C)nncc3c2)c1 [Example 3, N-(1-Ethyl-1H-pyrazol-5-yl)-3-(1-(isopropylamino)phthalazin-6-yl)-4-methylbenzamide]",–,–,≤ 0.01,≤ 0.01
"Cc1ccc(C(=O)Nc2ccnn2C)cc1-c1ccc2c(N3CCOC[C@@H]3C)nncc2c1 [Example 15, 4-methyl-3-(1-((3S)-3-methyl-4-morpholinyl)-6-phthalazinyl)-N-(1-methyl-1H-pyrazol-5-yl)benzamide]",–,–,≤ 0.01,–
